Measurements from patent US6562837B1, “Use of tetrahydroisoquinoline compounds for the treatment of septicemia” (Korea Institute of Science & Technology, priority 1998, dated 2003).

Key:
[1] = system: NO synthesis in macrophages (RAW 264.7 cells); assay: Suppression of LPS- and IFN-γ-induced NO synthesis in macrophage (nitrite, Griess reagent); assay type: cell-based; settings: 18 hours, control 8, LPS + IFN-γ alone 57
Description: In a DMEM medium supplemented with thermally treated 10% fetal calf serum, penicillin (100 U/ml) and streptomycin ([…]), macrophages (RAW 264.7 cells) were cultured to be confluent in a CO2 incubator. After being transferred to a serum-free DMEM medium, the cells were cultured for additional 24 hours and then, further for 18 hours in the presence of LPS (100 ng/ml) and IFN-γ, and either of the compounds of Chemical Formulas 1 and 2 (0, 1, 10, and 100:μM). The amount of the NO synthesized was measured indirectly through the amount of nitrite, an oxidation product of NO. To this end, the nitrite was subjected to color reaction with the Griess reagent (0.1% naphthylethylenediamine dihydrochloride, 1% sulphanilamide, 5% phosphate solution) and its absorbance at 550 nm was measured by a spectrophotometer.

[2] = system: LPS-induced DIC and MOF; assay: Indices for bacterial endotoxin (LPS)-induced DIC and MOF in rats; assay type: in vivo; settings: 10 mg/kg and 50 mg/kg orally, vs control given LPS (20 mg/kg) only; for number of platelets in blood: FIG. 3; for prothrombin time (PT): FIG. 4; for activated partial thromboplastin time (aPTT): FIG. 5; for fibrinogen level in blood: FIG. 6; for FDP level in blood: FIG. 7; for S-GOT level in blood: FIG. 8; for S-GPT level in blood: FIG. 9; for BUN level in blood: FIG. 10
Description: Rats (Sprague-Dawley, 250±50 g) were anesthetized with ketamine (250 mg/kg) by injection (i.m.). 30 min later, LPS (20 mg/kg) was infused into the tail vein of the rats over a 3 hour period. Thereafter, blood was harvested from the artery and measured for platelet number, PT, aPTT, fibrinogen level, FDP level, and the levels of S-GOT, S-GPT and BUN. Test drugs were orally administered once a day for two days. One hour after the final administration of the compounds of interest, the rats were anesthetized.
As an anticoagulant, sodium citrate was used. The number of platelets in the blood was measured by use of a platelet counter. Anticoagulant-treated blood was centrifuged at 1,500×g for 10 min and the plasma was obtained for testing.
In order to obtain a prothrombin time (PT), 100 μl of the plasma was added with 50 μl of a thromboplastin reagent (Sigma, U.S.A.) and a clotting time was measured by use of a fibrometer (Becton Dickinson Co., Canada). Before mixing, the plasma and thromboplastin reagent were pre-incubated at 37° C. for 3 min and 5 min, respectively.
For measurement of the aPTT, 100 μl of the plasma was incubated at 37° C. for 3 min and added with 100 μl of an activated partial thromboplastin time reagent (Sigma U.S.A.) and 100 μl of 0.02 M CaCl2 and a clotting time was measured by use of a fibrometer. Before addition, the reagent was pre-incubated at 37° C. for 1 min while CaCl2 was pre-warmed at 37° C.
To determine the fibrinogen level, first, 20 μl of the plasma was mixed with 180 μl of a buffer and incubated at 37° C. for 2 min. To this solution was added 100 μl of a thrombin reagent (Sigma U.S.A.), followed by measuring a clotting time. Then, the fibrinogen level was determined from a calibration curve obtained with a fibrinogen reference.
The FDP level was determined by use of the Thrombo-Wellcotest kit (Murex Biotech Limit, British). To this end, first, each blood sample (non-citrated) was mixed well with a soybean trypsin inhibitor and Bothrops atrox venom and incubated at 37° C. for 30 min. After centrifugation at 1,500×g for 10 min twice, the supernatant serum was diluted with a glycine saline buffer. 50 μl of the diluted serum was mixed with a drop of a latex suspension on a test slide glass and spread uniformly. The slide was placed in a shaker for 2 min and observed for agglutination. The concentration of FDP was determined semi-quantitatively as follows: with 1:0 dilution (−):0 μg/ml, (+):1 μg/ml, (++):2 μg/ml; with 1:1 dilution, (+):3 μg/ml, (++) :4 μg/ml; with 1:2 dilution (+):5 μg/ml, (++):6 μg/ml, etc.
For the assay of S-GOT, S-GPT and BUN, diagnostic kits (Boehringer Mannheim; AST kit for S-GOT, ALT kit for S-GPT, and urea kit for BUN) were used, together with an automatic biochemical analyzer (Hitachi 747), with the help of Green Cross Reference Lab., Korea.
In detail, after oral administration of higenamine or the compounds of Chemical Formulas 1 and 2, LPS (20 mg/kg) was injected into rats over a 3 hour period to cause DIC and MOF. In order to examine the improvement in the indices for DIC and MOF, these test animals were compared with a control which was provided with LPS only.

[3] = Toxicity experiment, 50% lethal dose (LD50); settings: in vivo, ip; intraperitoneally injected
[4] = system: iNOS mRNA in macrophages (RAW 264.7 cells); assay: Suppression of LPS- and IFN-γ-induced iNOS mRNA expression in macrophage (Northern blot); assay type: cell-based; settings: LPS 100 ng/ml + IFN-γ 10 U/ml, 18 hours, compound 1, 10 and 100 μM, FIG. 2
Description: In a DMEM medium supplemented with thermally treated 10% fetal calf serum, penicillin (100 U/ml) and streptomycin ([…]), macrophages (RAW 264.7 cells) were cultured to be confluent in a CO2 incubator. After being transferred to a serum-free DMEM medium, the cells were cultured for additional 24 hours and then, further for 18 hours in the presence of LPS (100 ng/ml) and interferon-γ (hereinafter referred to as “IFN-γ”; 10 U/ml), and/or the compound of Chemical Formula 2 (0, 1, 10, and 100:μM). Using a trizol solution, the total RNA was extracted from the cultured macrophages. After quantification in a spectrophotometer, the total RNA obtained was electrophoresed on a formamide-formaldehyde agarose gel and transferred to a nylon membrane. Thereafter, the total RNA on the nylon membrane was hybridized with cDNA probes for iNOS to determine the expression level of iNOS mRNA, in which the cDNA of iNOS was labeled with ^32P-dCTP by a random-primer method. For quantification, an x-ray film was exposed to the radioactive irradiation from the nylon membrane and developed to compare the radioactivity level of desired objects with those of GAPDH. […]

| Compound | Concentration of Nitrite ([1]; compound 1 μM + LPS + IFN-γ) [µM] | Concentration of Nitrite ([1]; compound 10 μM + LPS + IFN-γ) [µM] | Concentration of Nitrite ([1]; compound 100 μM + LPS + IFN-γ) [µM] | number of platelets in blood [2] | prothrombin time (PT) [2] | activated partial thromboplastin time (aPTT) [2] | fibrinogen level in blood [2] | FDP level in blood [2] | S-GOT level in blood [2] | S-GPT level in blood [2] | BUN level in blood [2] | LD50 [3] [mg/kg] | LPS/IFN-γ-induced iNOS mRNA expression in macrophages [4] |
| --- | --- | --- | --- | --- | --- | --- | --- | --- | --- | --- | --- | --- | --- |
| Oc1cc2c(cc1O)C(Cc1cccc3ccccc13)NCC2 (stereo not drawn) [Compound 1, 1-α-naphthylmethyl-6,7-dihydroxy-1,2,3,4-tetrahydroisoquinoline] | 30 ± 2.9 | 25 ± 3.4 | 9 ± 3.0 | increased | shortened | shortened | increased | decreased | reduction | reduction | reduction | 290 |  |
| Oc1cc2c(cc1O)C(Cc1ccc3ccccc3c1)NCC2 (stereo not drawn) [Compound 2, 1-β-naphthylmethyl-6,7-dihydroxy-1,2,3,4-tetrahydroisoquinoline] | 34 ± 3.1 | 22 ± 2.8 | 11 ± 2.0 | increased | shortened | shortened | increased | decreased | reduction | reduction | reduction | 439 | inhibits the LPS/IFN-γ-induced iNOS mRNA expression in a concentration-dependent manner |
| Oc1ccc(CC2NCCc3cc(O)c(O)cc32)cc1 (stereo not drawn) [Higenamine, reference compound] |  |  |  | increased | shortened | shortened | increased | decreased | reduction | reduction | reduction |  |  |
